Data reported in ChEMBL document CHEMBL5034023, “Development of Multifunctional and Orally Active Cyclic Peptide Agonists of Opioid/Neuropeptide FF Receptors that Produce Potent, Long-Lasting, and Peripherally Restricted Antinociception with Diminished Side Effects” (J Med Chem, 2021).
Calls of active or inactive are those of the source. Bridge positions count the residues as written; N and C are the ends. Square brackets hold non-standard residues; d marks the D form. Peptide text beside a SMILES is read from it. NMeF = CN[C@@H](Cc1ccccc1)C(=O)O

What was measured:
[1] = AUC (0 to infinity) in Kunming mouse at 868.1 nmol/kg, po measured up to 120 mins by LC-MS/MS analysis; type: ADME, organism-based; design: route oral, dose 868.1 nmol/kg, time <=120; settings: in vivo, 2 h
Mus musculus [2] = assay: Antinociceptive activity against Kunming mouse model of thermal-induced nociception assessed as maximum possible effect at 8.68 nmol/kg, po measured after 30 min by tail flick test relative to control; type: functional; settings: 0.5 h
[3] = molecular target: Delta-type opioid receptor (Homo sapiens, UniProt P41143); assay: (§1) Agonist activity at DOR (unknown origin) expressed in HEK293-A cells assessed as inhibition of forskolin-induced cAMP accumulation preincubated for 30 mins in presence of 3-isobutyl-1-methylxanthine followed by forskolin and compound addition by competitive PKA binding assay; type: functional, cell-based
Mus musculus [4] = assay: Antinociceptive activity against Kunming mouse model of thermal-induced nociception assessed as prolongation of tail-flick latency period at 8.68 nmol/kg, po in presence of NTI at 1 mg/kg, ip measured up to 240 mins by tail-flick test; type: functional, organism-based; settings: time min <=240
Mus musculus [5] = assay: Antinociceptive activity against Kunming mouse model of thermal-induced nociception assessed as prolongation of tail-flick latency period at 8.68 nmol/kg, sc in presence of nor-BNI at 1 mg/kg, sc measured up to 240 mins by tail-flick test; type: functional, organism-based; settings: time min <=240
Mus musculus [6] = assay: Antinociceptive activity against Kunming mouse model of thermal-induced nociception assessed as prolongation of tail-flick latency period at 8.68 nmol/kg, po in presence of beta-FNA at 1 mg/kg, ip measured up to 240 mins by tail-flick test; type: functional, organism-based; settings: time min <=240
[7] = MRT (0 to infinity) in Kunming mouse at 868.1 nmol/kg, iv measured up to 120 mins by LC-MS/MS analysis; type: ADME, organism-based; settings: in vivo
[8] = Toxicity in Kunming mouse assessed as effect on conditioned place preference at 868.1 nmol/kg, po measured for 5 days; type: organism-based; settings: in vivo, 120 h, time 5 day
[9] = Toxicity in Kunming mouse assessed as effect on arterial pH at 868.1 nmol/kg, po measured up to 30 mins by blood gas analyzer; type: organism-based; settings: in vivo, 0.5 h
[10] = Toxicity in Kunming mouse assessed as effect on motor coordination at 86.8 to 868.1 nmol/kg, po measured after 10 to 40 mins by Rotarod test; type: organism-based; settings: in vivo, dose lower 86.8 nmol/kg, time lower 10 min, dose upper 868.1 nmol/kg, time upper 40 min
[11] = molecular target: Neuropeptide FF receptor 2 (Homo sapiens, UniProt Q9Y5X5); assay: as §1, with “NPFF2R” for “DOR”, “accumulation by measuring maximal efficacy” for “accumulation”, “assay relative to control” for “assay”; type: functional, cell-based; settings: filed as agonist
Mus musculus [12] = assay: Antinociceptive activity against Kunming mouse model of thermal-induced nociception assessed as prolongation of tail-flick latency period at 8.68 nmol/kg, sc in presence of RF9 at 5 mg/kg, sc measured up to 240 mins by tail-flick test; type: functional, organism-based; settings: time min <=240
Mus musculus [13] = assay: Antinociceptive activity in po dosed Kunming mouse assessed as analgesic tolerance by measuring increase in maximal possible effect administered for 8 consecutive days by tail flick test (Rvb= 1.16 nmol/kg); type: functional
[14] = Tmax in Kunming mouse at 868.1 nmol/kg, po measured up to 120 mins by LC-MS/MS analysis; type: ADME, organism-based; settings: in vivo
Mus musculus [15] = assay: Antinociceptive activity in Kunming mouse assessed as analgesic tolerance by measuring fold shift in maximal possible effect at 8.68 nmol/kg, po administered for 8 consecutive days by tail flick test; type: functional
Mus musculus [16] = assay: Antinociceptive activity against icv dosed Kunming mouse model of thermal-induced nociception assessed as prolongation of tail-flick latency period measured up to 240 mins by tail-flick test; type: functional; settings: time min <=240
Mus musculus [17] = assay: Antinociceptive activity against Kunming mouse model of thermal-induced nociception assessed as prolongation of tail-flick latency period at 8.68 nmol/kg, po measured up to 240 mins by tail-flick test; type: functional, organism-based; settings: time min <=240
[18] = molecular target: Neuropeptide FF receptor 1 (Homo sapiens, UniProt Q9GZQ6); assay: as §1, with “NPFF1R” for “DOR”, “accumulation by measuring maximal efficacy” for “accumulation”, “assay relative to control” for “assay”; type: functional, cell-based; settings: filed as agonist
Mus musculus [19] = assay: Antinociception activity in po dosed Kunming mouse model of sciatic nerve CCI-induced neuropathic pain assessed as reduction in thermal hypersensitivity by measuring reduction in paw withdrawl threshold measured up to 180 mins by Hargreaves test; type: functional; settings: 3 h, time min <=180
[20] = Half life in Kunming mouse at 868.1 nmol/kg, iv measured up to 120 mins by LC-MS/MS analysis; type: ADME, organism-based; settings: in vivo
Mus musculus [21] = assay: Antinociceptive activity against po dosed Kunming mouse model of thermal-induced nociception assessed as prolongation of tail-flick latency period measured up to 240 mins by tail-flick test; type: functional; settings: 4 h, time min <=240
Mus musculus [22] = assay: Antinociceptive activity against Kunming mouse model of thermal-induced nociception assessed as prolongation of tail-flick latency period at 8.68 nmol/kg, sc in presence of NALM at 1 mg/kg, sc measured up to 240 mins by tail-flick test; type: functional, organism-based; settings: time min <=240
Mus musculus [23] = assay: Antinociception activity in po dosed Kunming mouse model of sciatic nerve CCI-induced neuropathic pain assessed as reduction in mechanical hypersensitivity by measuring reduction in paw withdrawl threshold measured up to 180 mins by Von Frey test; type: functional; settings: 3 h, time min <=180
Mus musculus [24] = assay: Antinociceptive activity against Kunming mouse model of thermal-induced nociception assessed as prolongation of tail-flick latency period at 2 pmol, icv in presence of NTI measured up to 240 mins by tail-flick test; type: functional, organism-based; settings: time min <=240
Mus musculus [25] = assay: Antinociceptive activity against Kunming mouse model of thermal-induced nociception assessed as prolongation of tail-flick latency period at 8.68 nmol/kg, po in presence of NALM at 5 nmol, icv measured up to 240 mins by tail-flick test; type: functional, organism-based; settings: time min <=240
[26] = Cmax in Kunming mouse at 868.1 nmol/kg, po measured up to 120 mins by LC-MS/MS analysis; type: ADME, organism-based; design: route oral, dose 868.1 nmol/kg, time <=120; settings: in vivo
[27] = Toxicity in Kunming mouse assessed as effect on arterial partial pressure of oxygen at 868.1 nmol/kg, po measured up to 30 mins by blood gas analyzer; type: organism-based; settings: in vivo, 0.5 h
[28] = Apparent volume of distribution in Kunming mouse at 868.1 nmol/kg, iv measured up to 120 mins by LC-MS/MS analysis; type: ADME, organism-based; settings: in vivo, read-out: Vd(app)
Mus musculus [29] = assay: Antinociceptive activity against Kunming mouse model of thermal-induced nociception assessed as prolongation of tail-flick latency period at 8.68 nmol/kg, sc in presence of NTI at 1 mg/kg, sc measured up to 240 mins by tail-flick test; type: functional, organism-based; settings: time min <=240
Mus musculus [30] = assay: Antinociceptive activity against Kunming mouse model of thermal-induced nociception assessed as duration of analgesic effect administered subcutaneously by tail-flick test; type: functional
[31] = Toxicity in naloxone-induced withdrawal symptoms in Kunming mouse assessed as effect on jumping response at 17 to 870 nmol/kg, po for every 8 hrs followed by naloxone stimulation and measured for 3 days; type: organism-based; settings: in vivo, 72 h, dose 17-870 nmol/kg, time 3 day

Sequence of Neuropeptide FF receptor 1 (Q9GZQ6 whole entry): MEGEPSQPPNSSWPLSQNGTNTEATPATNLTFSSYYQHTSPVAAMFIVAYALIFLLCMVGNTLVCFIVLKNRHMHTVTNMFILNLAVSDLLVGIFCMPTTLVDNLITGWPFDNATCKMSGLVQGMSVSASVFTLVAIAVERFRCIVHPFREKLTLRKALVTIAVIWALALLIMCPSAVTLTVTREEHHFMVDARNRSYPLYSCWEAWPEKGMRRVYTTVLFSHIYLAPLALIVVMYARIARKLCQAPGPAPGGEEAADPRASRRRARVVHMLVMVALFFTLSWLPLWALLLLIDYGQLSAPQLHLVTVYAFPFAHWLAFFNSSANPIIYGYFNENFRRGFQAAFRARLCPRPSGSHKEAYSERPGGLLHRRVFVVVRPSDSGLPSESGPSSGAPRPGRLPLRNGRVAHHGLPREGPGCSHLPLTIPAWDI
Sequence of Neuropeptide FF receptor 2 (Q9Y5X5 whole entry): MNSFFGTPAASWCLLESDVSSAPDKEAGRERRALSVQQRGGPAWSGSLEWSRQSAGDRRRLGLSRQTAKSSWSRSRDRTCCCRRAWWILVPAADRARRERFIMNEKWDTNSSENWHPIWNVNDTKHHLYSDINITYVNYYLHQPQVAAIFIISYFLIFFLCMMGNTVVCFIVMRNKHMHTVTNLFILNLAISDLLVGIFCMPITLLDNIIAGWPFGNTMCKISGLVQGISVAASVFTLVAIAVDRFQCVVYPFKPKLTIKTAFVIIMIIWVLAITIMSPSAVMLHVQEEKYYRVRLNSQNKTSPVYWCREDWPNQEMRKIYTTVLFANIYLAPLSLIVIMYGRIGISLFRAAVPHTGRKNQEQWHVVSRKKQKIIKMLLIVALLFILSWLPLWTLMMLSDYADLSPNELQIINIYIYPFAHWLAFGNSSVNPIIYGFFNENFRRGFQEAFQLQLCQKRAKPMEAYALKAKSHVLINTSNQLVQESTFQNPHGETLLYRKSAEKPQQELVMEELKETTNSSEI
Sequence of Delta-type opioid receptor (P41143 whole entry): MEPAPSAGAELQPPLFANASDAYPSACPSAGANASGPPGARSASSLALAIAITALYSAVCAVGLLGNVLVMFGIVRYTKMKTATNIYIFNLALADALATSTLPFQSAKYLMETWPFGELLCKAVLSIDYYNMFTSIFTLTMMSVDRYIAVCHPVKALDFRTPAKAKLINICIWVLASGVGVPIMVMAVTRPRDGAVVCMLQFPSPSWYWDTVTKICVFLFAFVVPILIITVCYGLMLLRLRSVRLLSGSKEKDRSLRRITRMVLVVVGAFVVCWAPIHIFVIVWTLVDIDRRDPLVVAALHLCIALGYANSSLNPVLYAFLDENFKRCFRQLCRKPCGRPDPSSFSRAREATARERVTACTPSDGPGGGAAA

CN1C(=O)CNC(=O)[C@H](NC(=O)[C@@H](N)Cc2ccc(O)cc2)CCCCNC(=O)C[C@@H](C(=O)N2CCC[C@H]2C(=O)N[C@@H](CCC(N)=O)C(=O)N[C@@H](CCCNC(=N)N)C(=O)N[C@@H](Cc2ccccc2)C(N)=O)NC(=O)[C@@H]1Cc1ccccc1 (H-Y[dK]G[NMeF]DPQRF-NH2; lactam 2-5)
AUC [1]: 13800.8 µg·min/L | MPE (Mus musculus [2]): 94.2% | EC50 [3]: 546 nM | Activity (Mus musculus [4]): Active | Activity (Mus musculus [5]): inactive | Activity (Mus musculus [6]): inactive | MRT inf [7]: 5 min | Activity [8]: Non-Toxic | Activity [9]: Non-Toxic | Activity [10]: Non-Toxic | Emax [11]: 59.5% | Activity (Mus musculus [12]): Active | ED50 (Mus musculus [13]): 0.00126 µmol/kg | Tmax [14]: 1 min | fold change (FC) (Mus musculus [15]): 0.92 | ED50 (Mus musculus [16]): 0.63 pmol | Activity (Mus musculus [17]): Active | Emax [18]: 73.7% | ED50 (Mus musculus [19]): 0.00322 µmol/kg | half-life [20]: 28.1 min | ED50 (Mus musculus [21]): 0.00119 µmol/kg | Activity (Mus musculus [22]): inactive | ED50 (Mus musculus [23]): 0.00334 µmol/kg | Activity (Mus musculus [24]): Active | Activity (Mus musculus [25]): Active | Cmax [26]: 215 ng/mL | Activity [27]: Non-Toxic | Vd [28]: 1.2 L/kg | Activity (Mus musculus [29]): Active | Tlast (Mus musculus [30]): 240 min | Activity [31]: Non-Toxic
